Structures can show the parent of a compound that is named as a salt.
Columns and labels:
[1] = Stability test at 35° C. (storage, weekly LC purity analysis); assay type: physicochemical; conditions: stored at 35° C.; for purity in stability test, number of days 0: day 0; for purity in stability test, number of days 7: day 7; for purity in stability test, number of days 14: day 14; for purity in stability test, number of days 21: day 21; for purity in stability test, number of days 28: day 28; for purity in stability test, number of days 56: day 56; for stability (assessment in words): results of Table 1
Experimental: As the amorphous of 2ccPA above, 300 mg of 2ccPA (obtained in Example 3) dissolved in 5 mL of water and freeze-dried was used.
In the stability test, about 15 mg each of the 2ccPA crystal of the present invention, the 2ccPA of a formula described in documents, and an amorphous of 2ccPA were weighed, and individually diluted with 5 mL of acetonitrile/water (1/1). Then, 5 μL each of the diluted solutions was analyzed weekly using the LC-2010CHT (Shimazu Corporation).

[2] = Storage stability, hermetically sealed, −20° C. and 35° C. for 3 months; assay type: physicochemical; conditions: stored at −20° C. and 35° C. for 3 months
From the text: The crystal of 2ccPA of the present invention is excellent in storage stability.

[3] = listed as 2ccPA crystal obtained by the production method of the present invention, sodium salt

CCCCCCCC/C=C\CCCCCCCC(=O)OCC1COP(=O)([O-])C1.[Na+] (stereo not shown) [2ccPA crystal of the present invention, 4-[(Z)-octadec-9-enoyloxymethyl]-2-oxo-1,2-λ^5-oxaphosphorane-2-olate sodium salt]
purity in stability test, number of days 0 ([1]; sodium salt): 99.561%
purity in stability test, number of days 7 ([1]; sodium salt): 99.605%
purity in stability test, number of days 14 ([1]; sodium salt): 99.576%
purity in stability test, number of days 21 ([1]; sodium salt): 99.631%
purity in stability test, number of days 28 ([1]; sodium salt): 99.626%
purity in stability test, number of days 42 ([1]; day 42): 99.593%
purity in stability test, number of days 56 [1, 3]: 99.493%
purity in stability test, number of days 56 ([1]; sodium salt): 99.493%
stability (assessment in words) [1, 3]: excellent stability
storage stability (decrease in purity, decomposition) [2]: little decrease in purity

CCCCCCCC/C=C\CCCCCCCC(=O)OCC1COP(=O)(O)C1 (stereo not shown) [A formula described in documents, sodium salt of 9-octadecenoic acid (9Z)-(2-hydroxy-2-oxo-2λ^5-1,2-oxaphosphoran-4-yl)methyl ester]
purity in stability test, number of days 0 [1]: 67.934%
purity in stability test, number of days 7 [1]: 66.665%
purity in stability test, number of days 14 [1]: 67.517%
purity in stability test, number of days 21 [1]: 62.77%
purity in stability test, number of days 28 [1]: 59.841%
stability (assessment in words) [1]: unstable

CCCCCCCC/C=C\CCCCCCCC(=O)OCC1COP(=O)([O-])C1.[Na+] (stereo not shown) [Amorphous of 2ccPA, sodium salt of 9-octadecenoic acid (9Z)-(2-hydroxy-2-oxo-2λ^5-1,2-oxaphosphoran-4-yl)methyl ester]
purity in stability test, number of days 0 [1]: 99.599%
purity in stability test, number of days 7 [1]: 83.363%
purity in stability test, number of days 14 [1]: 45.02%
purity in stability test, number of days 21 [1]: 34.738%
purity in stability test, number of days 28 [1]: 27.077%
stability (assessment in words) [1]: unsatisfactory

From US10941169B2, “Crystal of cyclic phosphonic acid sodium salt and method for manufacturing same” (OTSUKA CHEMICAL CO., LTD., priority 2014, dated 2021)
